pIC50: −log10 of the molar value.
Molecular target: T1, human vasopressin V1a receptor subtype (Homo sapiens, UniProt P37288)
T1 construct: host or cells: CHO cells; pZeoSV vector for the Thibonnier line
Assay: Vasopressin binding in CHO cell membranes expressing human vasopressin V1a subtype receptors ([3H]Manning ligand radioligand binding)
Conditions: for inhibition at 0.1 µM: @ 100 nM; for pIC50: value printed in parentheses
Description: Vasopressin Binding in Chinese Hamster Ovary Cell Membranes Expressing Human Vasopressin V1a Subtype Receptors
Chinese hamster ovary cells (CHO cells) stably transfected with the human vasopressin V1a subtype receptors were either obtained from BioSignal Inc., 1744 rue Williams, Montreal, Quebec, Canada or obtained from M. Thibonnier, Case Western Reserve University School of Medicine, Cleveland, Ohio.
A. Passaging and Amplification of Cells
CHO cells transfected with the human vasopressin V1a subtype receptors obtained from M. Thibonnier (pZeoSV vector) are allowed to grow to confluency (approx. >90%) in T-150 flasks under sterile conditions, in a cell culture medium of F-12 Nutrient Mixture (HAM) with L-glutamine (Gibco Cat. #11765-054) containing 15 mM HEPES (Gibco Cat. #15630-080), 1% antibiotic/antimycotic (add 5 mL 100×, Gibco Cat. #15240-062 per 500 mL F-12), 250 μg/mL Zeocin (add 1.25 mL of 100 mg/mL Invitrogen R-250-01 per 500 mL F-12) and 10% Fetal Bovine Serum (Qualified, heat inactivated, Gibco Cat. #16140-063). The medium is removed by aspiration and the cells are washed with 10 mL of Hank's Balanced Salt solution (Gibco Cat. #14175-095). The salt solution is removed by aspiration and the cells are trypsinized with 5 mL of trypsin-EDTA (0.05% trypsin, 0.53 mM EDTA-4Na, Gibco Cat. #25300-070) for 1 min. The trypsin is removed by aspiration and the cells dislodged by tapping. Cell Culture medium (e.g. 30 mL for 1:30 split) is immediately added and mixed well to inactivate trypsin. 1 mL of detached cells is added to new culture flasks containing fresh cell culture medium (e.g., into 25 mL per T-150 flask), and mixed gently. The cells are incubated at 37° C. in 5% CO2. The medium is changed at 3 to 4 days interval (or as appropriate). The cells grow to confluency (approx. >75%-95%) within 7-8 days. All steps are done under sterile conditions.
The cells are washed twice gently with Hank's Balanced Salt solution (e.g,. use 10 mL per T-150 flask). The excess is removed and the cells are bathed for 15-30 min. in an enzyme-free Cell Dissociation Buffer (e.g. use 8 mL Hank's Based, Gibco Cat. #13150-016 per T-150 flask) until the cells are loosened. The contents are transferred to centrifuge tubes (50 mL) kept in an ice bath. All subsequent steps are done at 4° C. The tubes are centrifuged at 300×g for 15 min (1380 rpm on SORVAL, Model RT6000D, using the rotor for 50 mL tubes). The supernatant is discarded and the cells suspended in homogenizing buffer(10 mM Tris-HCl containing 0.25 M sucrose and 1 mM EDTA, pH 7.4) ensuring that the volume of the buffer is about ten times the volume of the cell pellet. The cells are pooled into a centrifuge tube (50 mL) and homogenized with Polytron at setting 6 for 10 sec. The homogenate is transferred into a Potter-Elvjehm homogenizer and homogenized with 3 strokes. The homogenate is centrifuged at 1500×g for 10 min at 4° C. (3100 rpm using SORVAL, model RT6000D, using the rotor for 50 mL tubes). The pellet is discarded. The supernatant is centrifuged at 100,000×g for 60 min. at 4° C. (Beckman L8-80M ultracentrifuge; spin at 37,500 rpm with rotor type 70 Ti for 50 mL tubes; 38,000 rpm with type 80Ti for 15 mL tubes; or 35,800 rpm with rotor type 45Ti). The supernantant is discarded and the pellet suspended in 3 to 4 mL of Tris buffer (50 mM TRIS—HCl, pH 7.4). The protein content is estimated by the Bradford or Lowry method. The volume of the membrane suspension is adjusted with the membrane buffer (50 mM Tris-HCl containing 0.1% BSA and 0.1 mM PMSF) to give 3.0 mg/mL (or as appropriate) of protein. The membranes are aliquoted and stored at −70° C.
C. Radioligand Binding Assay […]

T1 sequence (P37288 whole entry): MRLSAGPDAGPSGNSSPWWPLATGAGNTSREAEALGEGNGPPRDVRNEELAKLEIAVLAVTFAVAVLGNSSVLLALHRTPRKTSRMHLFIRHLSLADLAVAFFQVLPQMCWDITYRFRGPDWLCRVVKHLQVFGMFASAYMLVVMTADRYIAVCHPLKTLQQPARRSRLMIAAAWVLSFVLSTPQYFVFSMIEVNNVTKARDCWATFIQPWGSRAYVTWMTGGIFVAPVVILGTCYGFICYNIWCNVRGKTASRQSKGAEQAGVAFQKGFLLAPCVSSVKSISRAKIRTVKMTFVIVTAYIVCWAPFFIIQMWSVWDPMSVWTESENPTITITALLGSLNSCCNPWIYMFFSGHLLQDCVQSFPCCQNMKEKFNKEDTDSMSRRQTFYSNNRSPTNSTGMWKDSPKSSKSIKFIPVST

SMILES	inhibition at 0.1 µM	pIC50
COc1ccccc1-c1ccc(C(=O)N2Cc3ccc(C(=O)N(C)C[C@H](O)CO)n3Cc3ccccc32)cc1C (single isomer, unassigned) [Example 15]	59%	
COc1ccccc1-c1ccc(C(=O)N2Cc3ccc(C(=O)N(C)C[C@@H](O)CO)n3Cc3ccccc32)cc1C (single isomer, unassigned) [Example 16]	68%	
COc1cc(C(=O)N2Cc3ccc(C(=O)N(C)C[C@@H](O)[C@H](O)[C@H](O)[C@@H](O)CO)n3Cc3ccccc32)ccc1-c1ccccc1C(F)(F)F (stereo in doubt) [Example 23, 10-{[2-Methoxy-2′-trifluoromethyl-[1,1′-biphenyl]-4-yl]carbonyl}-N-methyl-N-[(2R,3S,4R,5S)-2,3,4,5,6-pentahydroxyhexyl]-10,11-dihydro-5H-pyrrolo[2,1-c][1,4]benzodiazepine-3-carboxamide]		5.97
Cc1cc(C(=O)N2Cc3ccc(C(=O)N(CCO)CCO)n3Cc3ccccc32)ccc1-c1ccccc1C(F)(F)F [Example 1, 10-[(2-Methyl-2′-trifluoromethyl-[1,1′-biphenyl]-4-yl)carbonyl]-10,11-dihydro-5H-pyrrolo[2,1-c][1,4]benzodiazepine-3-carboxylic acid bis-(2-hydroxy-ethyl)-amide]		5.86
Cc1cc(C(=O)N2Cc3ccc(C(=O)NC(CO)(CO)CO)n3Cc3ccccc32)ccc1-c1ccccc1C(F)(F)F [Example 3, 10-[(2-Methyl-2′-trifluoromethyl-[1,1′-biphenyl]-4-yl)carbonyl]-10,11-dihydro-5H-pyrrolo[2,1-c][1,4]benzodiazepine-3-carboxylic acid (2-hydroxy-1,1-bis-hydroxymethyl-ethyl)-amide]	7%	
Cc1cc(C(=O)N2Cc3ccc(C(=O)N(C)C[C@H](O)[C@@H](O)[C@H](O)[C@H](O)CO)n3Cc3ccccc32)ccc1-c1ccccc1C(F)(F)F [Example 4, 10-[(2-Methyl-2′-trifluoromethyl-[1,1′-biphenyl]-4-yl)carbonyl]-10,11-dihydro-5H-pyrrolo[2,1-c][1,4]benzodiazepine-3-carboxylic acid methyl-((2S,3R,4R,5R)-2,3,4,5,6-pentahydroxy-hexyl)-amide]		5.84
Cc1cc(C(=O)N2Cc3ccc(C(=O)N4CCN(C[C@H](O)CO)CC4)n3Cc3ccccc32)ccc1-c1ccccc1C(F)(F)F [Example 5, (2S)-3-{4-[(10-{[2-Methyl-2′-trifluoromethyl-[1,1′-biphenyl]-4-yl]carbonyl}-10,11-dihydro-5H-pyrrolo[2,1-c][1,4]benzodiazepin-3-yl)carbonyl]piperazin-1-yl}propane-1,2-diol]		5.57
Cc1cc(C(=O)N2Cc3ccc(C(=O)N4CCN(C[C@@H](O)CO)CC4)n3Cc3ccccc32)ccc1-c1ccccc1C(F)(F)F [Example 6, (2R)-3-{4-[(10-{[2-Methyl-2′-trifluoromethyl-[1,1′-biphenyl]-4-yl]carbonyl}-10,11-dihydro-5H-pyrrolo[2,1-c][1,4]benzodiazepin-3-yl)carbonyl]piperazin-1-yl}propane-1,2-diol]		5.62
COC[C@H](O)CN1CCN(C(=O)c2ccc3n2Cc2ccccc2N(C(=O)c2ccc(-c4ccccc4C(F)(F)F)c(C)c2)C3)CC1 [Example 8, (2R)-1-Methoxy-3-{4-[(10-{[2-methyl-2′-trifluoromethyl-[1,1′-biphenyl]-4-yl]carbonyl}-10,11-dihydro-5H-pyrrolo[2,1-c][1,4]benzodiazepin-3-yl)carbonyl]piperazin-1-yl}propan-2-ol]		5.71
COC[C@@H](O)CN1CCN(C(=O)c2ccc3n2Cc2ccccc2N(C(=O)c2ccc(-c4ccccc4C(F)(F)F)c(C)c2)C3)CC1 [Example 9, [3-({4-[(2S)-2-Hydroxy-3-methoxypropyl]-1-piperazinyl}carbonyl)-5H-pyrrolo[2,1-c][1,4]benzodiazepin-10(11H)-yl][2-methyl-2′-trifluoromethyl-[1,1′-biphenyl]-4-yl]methanone]		5.70
COCC(CN(C)C(=O)c1ccc2n1Cc1ccccc1N(C(=O)c1ccc(-c3ccccc3C(F)(F)F)c(C)c1)C2)OC (stereo not drawn) [Example 10, N-(2,3-Dimethoxypropyl)-N-methyl-10-{[2-methyl-2′-trifluoromethyl-[1,1′-biphenyl]-4-yl]carbonyl}-10,11-dihydro-5H-pyrrolo[2,1-c][1,4]benzodiazepine-3-carboxamide]		5.74
Cc1cc(C(=O)N2Cc3ccc(C(=O)N(C)CC4COC(=O)O4)n3Cc3ccccc32)ccc1-c1ccccc1C(F)(F)F (stereo not drawn) [Example 11, 10-[(2-Methyl-2′-trifluoromethyl-[1,1′-biphenyl]-4-yl)carbonyl]-10,11-dihydro-5H-pyrrolo[2,1-c][1,4]benzodiazepine-3-carboxylic acid methyl-[(2-oxo-[1,3]dioxolan-4-yl)methyl]-amide]		5.86
Cc1cc(C(=O)N2Cc3ccc(C(=O)N(C)C[C@@H]4OC(=O)O[C@H]4[C@H](O)[C@H]4COC(=O)O4)n3Cc3ccccc32)ccc1-c1ccccc1C(F)(F)F [Example 12, N-[((4S,5S)-5-{(R)-Hydroxy[(4R)-2-oxo-1,3-dioxolan-4-yl]methyl}-2-oxo-1,3-dioxolan-4-yl)methyl]-N-methyl-10-{[2-methyl-2′-(trifluoromethyl)[1,1′-biphenyl]-4-yl]carbonyl}-10,11-dihydro-5H-pyrrolo[2,1-c]benzodiazepine-3-carboxamide]		5.79
CC(=O)OCC(CN(C)C(=O)c1ccc2n1Cc1ccccc1N(C(=O)c1ccc(-c3ccccc3C(F)(F)F)c(C)c1)C2)OC(C)=O (stereo not drawn) [Example 13, 2-(Acetyloxy)-1-({methyl[(10-{[2-methyl-2′-trifluoromethyl-[1,1′-biphenyl]-4-yl]carbonyl}-10,11-dihydro-5H-pyrrolo[2,1-c][1,4]benzodiazepin-3-yl)carbonyl]amino}methyl)ethyl acetate]		5.92
COc1ccccc1-c1ccc(C(=O)N2Cc3ccc(C(=O)N(C)CC(O)CO)n3Cc3ccccc32)cc1C (stereo not drawn) [Example 14, 10-[(2′-Methoxy-2-methyl-[1,1′-biphenyl]-4-yl)carbonyl]-10,11-dihydro-5H-pyrrolo[2,1-c][1,4]benzodiazepine-3-carboxylic acid (2,3-dihydroxy-propyl)-methyl-amide]		6.84
COc1ccccc1-c1ccc(C(=O)N2Cc3ccc(C(=O)N(C)C[C@H](O)[C@@H](O)[C@H](O)[C@H](O)CO)n3Cc3ccccc32)cc1C [Example 17, 10-[(2′-Methoxy-2-methyl-[1,1′-biphenyl]-4-yl)carbonyl]-10,11-dihydro-5H-pyrrolo[2,1-c][1,4]benzodiazepine-3-carboxylic acid methyl-[(2S,3R,4R, 5R)-2,3,4,5,6-pentahydroxy-hexyl)-amide]		6.64
COc1cc(-c2ccccc2C(F)(F)F)c(Cl)cc1C(=O)N1Cc2ccc(C(=O)N(C)C[C@H](O)[C@@H](O)[C@H](O)[C@H](O)CO)n2Cc2ccccc21 [Example 20, 10-{[6-Chloro-3-methoxy-2′-trifluoromethyl-[1,1′-biphenyl]-4-yl]carbonyl}-N-methyl-N-[(2S,3R,4R,5R)-2,3,4,5,6-pentahydroxyhexyl]-10,11-dihydro-5H-pyrrolo[2,1-c][1,4]benzodiazepine-3-carboxamide]		5.51
O=C(c1ccc2n1Cc1ccccc1N(C(=O)c1ccc(-c3cccc4ccccc34)cc1Cl)C2)N1CCN(CCO)CC1 [Example 25, 2-{4-[10-{[2-Chloro-4-(naphthalen-1-yl)phenyl]carbonyl}-(10,11-dihydro-5H-pyrrolo[2,1-c][1,4]benzodiazepin-3-yl)carbonyl]piperazine-1-yl}-1-hydroxyethane]	5%	

Reference: patent US6900200B2, “Tricyclic hydroxy carboxamides and derivatives thereof tocolytic oxytocin receptor antagonists” (Wyeth, priority 2001, dated 2005)
